# Experimental data from patent US20140357841A1, “Method for stabilizing polypeptide into alpha helix” (Peking University Shenzhen Graduate School, priority 2013, published 2014).
# Marks after values point to notes of the source that are not given here.
# What was measured:
# [1] = circular dichroism (CD) detection of alpha helix content in PBS; type: physicochemical; set-up: [θ]215 / [θ]207 / [θ]190: unit not given here; conditions: for [θ]190 / [θ]207 / [θ]215 / [θ]215/[θ]207: CD; for [θ]190 / [θ]207 / [θ]215 / [θ]215/[θ]207 / relative content of alpha helix: PBS pH = 7.4, 22° C., 10 mM; for relative content of alpha helix: [θ]215(x)/[θ]215(ASOB), ASOB is the standard; for alpha helix stabilization / content by CD (in words): PBS 10 mM
# Protocol: The obtained compound 4 is dissolved into of PBS (PH=7.4, 10 mM) for obtaining a CD diagram.
# fH=([θ]obs215-[θ]C)/([θ]∞215-[θ]C);
# wherein T=22° C.; κ=4.0; Np=6 (for pentapeptide); ι=0.1 (cm); C is a molarity M of the samples of the two isomers.
# [2] = CD comparison in PBS and 50% trifluoroethanol (TFE) solution; type: physicochemical; conditions: CD in PBS versus 50% TFE solution
# Text: FIG. 2 is a CD diagram of the Ac-cyclo(1,5)-monoS5AAAC-NH2 sulfoxide B in the PBS and a 50% trifluoroethanol (TFE) solution according to the Example 1 of the present invention.
Substance,[θ]190 [1],[θ]207 [1],[θ]215 [1],[θ]215/[θ]207 [1],relative content of alpha helix [1],alpha helix stabilization / content by CD (in words) [1],effect of TFE buffer solution on the alpha helix [2],"improvement of the effects of stabilizing the alpha helix compared to conventional amido bond stabilization ([1]; versus control of Table 3, identical intermediate sequences) [%]"
"Ac-(cyclo2,6)-R[KAAAD]-NH2 [control, reference compound]",39352,−13684,−13537,0.99,0.86**,,,
"Ac-cyclo(1,5)-monoS5AAAC-NH2 sulfoxide B [ASOB]",25987,−16054,−15666,0.98,1.00,has stable alpha helixes,no improvements,
"Ac-cyclo(1,5)-monoS5AAAC-NH2 sulfoxide A [ASOA]",−14594,−4667,672,−0.14,−0.04,,,14
"Ac-cyclo(1,5)-monoS5AGAC-NH2 sulfoxide B [GSOB]",9121,−7777,−7920,1.02,0.51,identically high contents of the alpha helixes,,
"Ac-cyclo(1,5)-monoS5AIAC-NH2 sulfoxide B [ISOB]",26306,−15556,−13558,0.87,0.87,identically high contents of the alpha helixes,,
"Ac-cyclo(1,5)-monoS6AAAC-NH2 sulfoxide B",,,,,,has effects of stabilizing alpha helix,,
